Experiments:
[1] = normal mice, [125I]-labeled, cited from earlier work; for Transfer into brain: 2 minutes after administration
[2] = Measurement of partition coefficient based on the octanol extraction method (log Poctanol); format: physicochemical; conditions: octanol / 10 mmol/L phosphate buffer (pH 7.4); for logD: read-out: logPoctanol value
Procedure: Partition coefficients based on the octanol extraction method (hereinafter referred to as log Poctanol) were measured, which are generally known as an indicator of permeability of compounds through the blood-brain barrier (hereinafter referred to as BBB).
Each diethyl ether solution of Compound 1 (Example 15), Compound 2 (Example 16), Compound 3 (Example 17), Compound 4 (Example 18) and [^123I]-IMPY (Comparative Example 1) was each diluted with 10 mg/mL ascorbic acid-containing physiological saline solution, and adjusted to a radioactive concentration of 20-30 MBq/mL. To 2 mL of octanol, 10 μL each of the solutions was added, and 2 mL of 10 mmol/L phosphate buffer (pH 7.4) was added, followed by stirring for 30 seconds. After each mixture was centrifuged (2000 rpm×60 min.) with a low-speed centrifuge (type: CTD4, manufactured by Hitachi Koki, Co., Ltd.), the octanol layer and the water layer were sampled each in an amount of 1 mL, and subjected to measurement of radioactivity count with an autowell gamma system (Type: ARC-301B, manufactured by Aloka). Using the obtained radioactivity count, log Poctanol was calculated in accordance with the equation (1).

[3] = Measurement of transferability into brain and clearance (radioactive accumulation in brain after intravenous injection); format: in vivo, male Wistar rats; conditions: rats; for Radioactive accumulation in brain two minutes after the injection (in words): 2 min; for Radioactive accumulation per unit weight of brain, after 2 min.: 2 min after injection; for Radioactive accumulation per unit weight of brain, after 5 min.: 5 min after injection; for Radioactive accumulation per unit weight of brain, after 30 min.: 30 min after injection; for Radioactive accumulation per unit weight of brain, after 60 min.: 60 min after injection; for Clearance of radioactivity from brain (in words): up to 60 min
Procedure: Using Compounds 1, 2 and 3, a time course change of radioactive accumulation in brain of male Wistar rats (7-week old) was measured.
Compound 1 in 10 mg/mL ascorbic acid-containing physiological saline solution (24 MBq/mL in radioactive concentration), Compound 2 in 10 mg/mL ascorbic acid-containing physiological saline solution (30 MBq/mL in radioactive concentration), Compound 4 in 10 mg/mL ascorbic acid-containing physiological saline solution (32 MBq/mL in radioactive concentration) and Compound 3 in 10 mg/mL ascorbic acid-containing physiological saline solution (30 MBq/mL in radioactive concentration) were prepared to obtain sample solutions. The sample solutions were injected under thiopental anesthesia into the tail vein of the male Wistar rats (7-week old) (dosage: 0.05 mL, dosed radioactivity: 1.2-1.5 MBq equivalent). The rats were sacrificed by bleeding from abdominal artery, and brains were removed and subjected to measurement of mass of brains and further subjected to measurement of radioactivity (hereinafter referred to as A in this Example) with a single channel analyzer (detector type: SP-20 manufactured by OHYO KOKEN KOGYO Co., Ltd.) 2, 5, 30 and 60 minutes after the injection. Further, the radioactivity level of the rest of the whole body was measured in the same manner as above (hereinafter referred to as B in this Example). Using these measurement results, radioactive accumulation per unit weight of brain (% ID/g) at the respective time points of dissection was calculated in accordance with the following formula (2) (Examples 19 to 22).
Separately, [^123I]-IMPY in 10 mg/mL ascorbic acid-containing physiological saline solution (20-30 MBq/mL in radioactive concentration) was prepared, the same operation as above was conducted, and radioactive accumulation per unit weight of brain (% ID/g) at the respective time points of dissection was calculated (Comparative Example 2).
Meanwhile, three animals were used for Examples 19 to 22 and Comparative Example 2 at the respective time points.

[4] = target: T1, amyloid in brain (aggregated Aβ1-42 injected into amygdaloid nucleus) (Homo sapiens, UniProt P05067); test: Confirmation of imaging of amyloid in brain (autoradiogram of brain slice after tail vein injection, Thioflavin T staining); format: in vivo, male Wistar rat; conditions: rat
T1 construct: Aβ1-42 (manufactured by Wako); purchased Wako
Procedure: (1) Aβ1-42 (manufactured by Wako) was dissolved in phosphate buffer (pH 7.4) and shaken at 37° C. for 72 hours, to obtain a 1 mg/mL suspension of aggregated Aβ (hereinafter referred to as amyloid suspension in the Examples).
(2) Under thiopental anesthesia, […] of the amyloid suspension was injected into an amygdaloid nucleus on one side of a male Wistar rat (7-week old). As a control, 2.5 μL of a phosphate buffered physiological saline solution (pH 7.4) was injected into an amygdaloid nucleus on the other side of the rat. The rats were examined 1 day after the injection of the amyloid suspension and the phosphate buffered physiological saline solution (pH 7.4).
(3) Compound 1 in a 10 mg/mL ascorbic acid-containing physiological saline solution (24 MBq/mL in radioactivity concentration), Compound 2 in a 10 mg/mL ascorbic acid-containing physiological saline solution (30 MBq/mL in radioactivity concentration) and Compound 4 in a 10 mg/mL ascorbic acid-containing physiological saline solution (32 MBq/mL in radioactivity concentration) were each prepared to obtain a sample solution. This sample solution was injected under thiopental anesthesia into the rat through the tail vein (dosage: 0.5 mL, dosed radioactivity: 12-15 MBq equivalent).
(4) Brain was removed 60 minutes after the injection to prepare a brain slice of 10 μm in thickness with a microtome (type: CM3050S, manufactured by LEICA). The brain slice was exposed to an imaging plate for 20 hours, and then image analysis was carried out by use of a Bio-imaging Analyzer (type: BAS-2500; manufactured by FUJIFILM Corporation).
(5) After the completion of the image analysis using the Bio-imaging Analyzer, pathological staining with Thioflavin T was carried out to perform imaging by use of a fluorescence microscope (manufactured by NIKON Corporation; type: TE2000-U model; excitation wavelength: 400-440 nm; detection wavelength: 470 nm). Thus, it was confirmed that amyloid was deposited on the slice (FIG. 10b, FIG. 11b and FIG. 12b).
The procedure was conducted in the same manner as in Example 23 except that a solution of Compound 3 in 10 mg/mL ascorbic acid-containing physiological saline solution (32 MBq/mL in radioactive concentration) was used as a sample solution, and a brain was removed 120 minutes after injection of the sample solution.

[5] = reported in WO03/106439; cited from earlier work
[6] = brain removed 60 minutes after injection

T1 sequence (P05067 672-713): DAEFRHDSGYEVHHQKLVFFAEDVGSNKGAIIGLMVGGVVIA

Row | SMILES | Transfer into brain [1] | Clearance from normal tissues [1] | logD [2] | Radioactive accumulation in brain two minutes after the injection (in words) [3] | Radioactive accumulation per unit weight of brain, after 2 min. [3] | Radioactive accumulation per unit weight of brain, after 5 min. [3] | Radioactive accumulation per unit weight of brain, after 30 min. [3] | Radioactive accumulation per unit weight of brain, after 60 min. [3] | Clearance of radioactivity from brain (in words) [3] | Accumulation at intracerebral amyloid / capability of imaging intracerebral amyloid [4, 6] | logPoctanol value [2] | Accumulation at intracerebral amyloid / capability of imaging intracerebral amyloid ([4]; brain removed 120 minutes after injection) | Result in reverse mutation test [5]
1 | CN(C)c1ccc(-c2nc3ccc(I)cc3o2)cc1 [IBOX, 6-iodo-2-[4′-(N,N-dimethylamino)phenyl]benzoxazole] | transferred into brain | insufficient in clearance from normal tissues |  |  |  |  |  |  |  |  |  |  | 
2 | COc1cc(-c2cn3cc([123I])ccc3n2)ccc1OCCF [Compound 2, 2-[4′-(2″-fluoroethoxy)-3′-methoxyphenyl]-6-[^123I]iodoimidazo[1,2-a]pyridine] |  |  | 1.8 | significant radioactive accumulation | 0.42 % ID/g | 0.26 % ID/g | 0.04 % ID/g | 0.02 % ID/g | tendency to rapidly clear away in 60 minutes | property of accumulating at intracerebral amyloid |  |  | 
3 | CN(C)c1ccc(-c2cn3cc([123I])ccc3n2)cc1 [[^123I]-IMPY, reference compound] |  |  |  |  | 1.19 % ID/g | 0.97 % ID/g | 0.23 % ID/g | 0.09 % ID/g |  |  | 1.9 |  | 
4 | COc1ccc2nc(-c3ccc(OCCF)c([123I])c3)cn2c1 [Compound 3, 2-[4′-(2″-fluoroethoxy)-3′-[^123I]iodophenyl]-6-methoxyimidazo[1,2-a]pyridine] |  |  | 2.6 | significant radioactive accumulation | 0.70 % ID/g | 0.53 % ID/g | 0.08 % ID/g | 0.03 % ID/g | tendency to rapidly clear away in 60 minutes |  |  | property of accumulating at intracerebral amyloid | 
5 | CC(=C(C#N)C#N)c1ccc2cc(N(C)CCF)ccc2c1 [FDDNP, 2-(1-{6-[(2-fluoroethyl)(methyl)amino]-2-naphthyl}ethylidene)malononitrile] |  |  |  |  |  |  |  |  |  |  |  |  | positive
6 | CN(C)c1ccc(-c2nc3ccc(I)cc3s2)cc1 [TZDM, 6-iodo-2-[4′-(N,N-dimethylamino)phenyl]benzothiazole] | transferred into brain | insufficient in clearance from normal tissues |  |  |  |  |  |  |  |  |  |  | 
7 | COc1ccc2nc(-c3ccc(OCCCF)c([123I])c3)cn2c1 [Compound 1, 2-[4′-(3″-fluoropropoxy)-3′-[^123I]iodophenyl]-6-methoxyimidazo[1,2-a]pyridine] |  |  | 2.3 | significant radioactive accumulation | 0.74 % ID/g | 0.53 % ID/g | 0.11 % ID/g | 0.03 % ID/g | tendency to rapidly clear away in 60 minutes | property of accumulating at intracerebral amyloid |  |  | 
8 | CN(C)c1ccc(/C=C/c2ccc(I)cc2)cc1 [m-I-SB, (E)-4-dimethylamino-4′-iodostilbene] | transferred into brain | insufficient in clearance from normal tissues |  |  |  |  |  |  |  |  |  |  | 
9 | Cc1cc2nc(-c3ccc(OCCO)cc3)cn2cc1[123I] [Compound 4, 2-[4′-(2″-hydroxyethoxy)phenyl]-6-[^123I]iodo-7-methylimidazo[1,2-a]pyridine] |  |  | 2.7 | significant radioactive accumulation | 0.80 % ID/g | 0.61 % ID/g | 0.12 % ID/g | 0.03 % ID/g | tendency to rapidly clear away in 60 minutes | property of accumulating at intracerebral amyloid |  |  | 

— patent US8399672B2, “Compound having affinity for amyloid” (Nihon Medi-Physics Co., Ltd., priority 2007, dated 2013)
